A word on the LD50: it is the dose expected to kill half of the subjects tested. Low values mean a more toxic substance, high ones a less toxic substance.

The values below come from patent EP0052238B1, “A new vincamine derivative, a method for its preparation and pharmaceutical compositions containing it” (MEDEA RESEARCH S.r.l., priority 1980, dated 1982).

Data set [1] has as its system smooth musculature of the isolated ileum of rabbits, made hypertonic by sodium ions. The experiment in a line: Myorelaxing effect on isolated ileum made hypertonic by sodium ions. As to conditions: isolated rabbit ileum, relative to vincamine. From the text: (§1) The myorelaxing effect of MR 711 and vincamine has been investigated on the smooth musculature of the isolated ileum of rabbits, made hypertonic by sodium ions or serotonin.

A short description of data set [2]: Acute toxicity in mice (LD50, Lichtfield and Wilcoxon). As to conditions: mouse, in vivo, ip.
Data set [3] concerns smooth musculature of the isolated ileum of rabbits, made hypertonic by serotonin. Description: Myorelaxing effect on isolated ileum made hypertonic by serotonin. The conditions noted are these: isolated rabbit ileum, relative to vincamine.
From the text: as §1

Another data set concerns mice. Description: Protective action on the mortality by hypobaric hypoxia. It is filed as in vivo. The conditions noted are these: intravenous route, 25.6 mg/kg; for Survival time: pressure reduced until 190 mm Hg; for % Variation: survival time versus controls.

Take `CCC12C=C(C(=O)OCOC)n3c4c(c5ccccc53)CCN(CCC1)C42` (centres unmarked) [MR 711, 13a-ethyl-2,3,5,6,13a,13b-hexahydro-1 H-indolo[3,2,1-de]pyrido[3,2,1-ij]-[1,5]naphthyridine-12-methoxymethylcarboxylate]: the “activity in inhibiting the sodium ions induced contractions, higher than the corresponding activity displayed by vincamine” value in data set [1] was found to be 46%. In addition, the LD50 in data set [2] is 580 mg/kg. Besides, the “activity in inhibiting the serotonin induced contractions, higher than the corresponding activity displayed by vincamine” value in data set [3] was 70%. In addition, in the data set with mice, the Survival time was 262.9 ± 31.4 s and the “% Variation” value was “+263%”.
As to `CC[C@]12CCCN3CCc4c(n(c5ccccc45)[C@@](O)(C(=O)OC)C1)[C@@H]32` [Vincamine], the LD50 in data set [2] was 195 mg/kg. In addition, in the data set with mice, the Survival time came out at 213.3 ± 37.9 s and the “% Variation” value is recorded as “+194%”.
